Experimental data: US20130150430A1, “Methods for Impairing the P53/HDM2 Auto-Regulatory Loop in Multiple Myeloma Development Using mIR-192, mIR-194 and mIR-215” (THE OHIO STATE UNIVERSITY, priority 2011, published 2013)

Columns and labels:
Assay type in all cases: cell-based, human
[1] = tested on: MDM2 mRNA in MM1s and NCI-H929 cells; experiment: RT-PCR of MDM2 mRNA after miRNA transfection and Nutlin-3a; settings: transfected cells at 6 and 12 hr of Nutlin-3a treatment, both cell lines
Method: FIG. 4F: MDM2 mRNA expression normalized for GAPDH mRNA expression in MM1s and NCIH929 cells miRNAs or Scr transfected after Nutlin-3a treatment (6-12 hr).
RNA was isolated from cell lines using Trizol reagent (Invitrogen) as per the manufacturer's protocol. An aliquot of 5 μg RNA was then used for cDNA synthesis using the SuperScript first strand cDNA synthesis kit (Invitrogen). RT-PCRs were carried out using ABI Prism 7900HT sequence detection systems with Applied Biosystems TaqMan Gene expression assays (p21 (CDKN1A):Hs01121172_ml; MYC:Hs99999003_ml; TP53:Hs00153349_ml; MDM2: Hs01066938_ml).

[2] = tested on: NCI-H929 and RPMI-8226 IGF-1 treated cells; experiment: Intra-epithelial trans-well migration assay with IGF-1 as attractant; settings: ectopic expression, vs Scr control
Source text: FIG. 7B: Intra-epithelial migration assay in MM cells miRNAs transfected using HS-5 cells at different concentrations of IGF-1 as attractant. Bars indicate relative fold change of migration compared with the control ±SD.
FIG. 21C: Intra-epithelial migration assay in MM1s and RPMI-8226 cells (pre-miRNA-192, -194, -215, Scr-transfected) using HS-27A stromal cell as cellular layer at different concentrations of IGF-1 as attractant. Bars indicate relative fold change of migration compared with the control. All experiments were performed in triplicate.
To this end, the inventors used intra-epithelial trans-well migration assay with IGF-1 at various concentrations as attractant and two bone marrow-derived stromal cells, HS-5 (fibroblast-like) and HS-27A (epithelial-like) as cell layer.
IGF-I-induced MM transendothelial migration was determined using 24 well, 6.5 mm internal diameter transwell cluster plates with polycarbonate membranes ([…] pore size) separating the 2 chambers (Corning Costar, Cambridge, Mass.). Bone marrow stromal cell lines HS-5 and HS-27A were grown on the insert for 24 hrs to produce a confluent monolayer. […] At the end of the incubation period, cells migrating through endothelial or bone marrow stromal cell layers into the lower chamber were harvested, stained with trypan blue, and counted under a microscope.

[3] = tested on: MM cells carrying WT TP53 (MM1s, NCI-H929, KMS28BM); experiment: MTS cell viability assay after miRNA transfection; settings: transfected cells vs scrambled sequences, 24, 48, 72 hrs after transfection
Source text: (§1) FIG. 3A, FIG. 3B, FIG. 3C, FIG. 3D: MTS assay performed in MM1s (FIG. 3A), NCI-929 (FIG. 3B), KMS28BM (FIG. 3C) and RPMI-8226 (FIG. 3D) cell lines. Cells were transfected with miR-192, miR-215 and scrambled sequence (Scr) and were harvested at 24, 48, and 72 hrs after transfection. P values are indicated.
(§2) CD-138+ PCs obtained from new diagnosed MM subjects and isolated as previously described were transfected by using nucleoporation (LONZA) Cell Line Nucleofector Kit V (Cat#VCA-1003). MM1s, NCI-H929 cell lines were transfected by using nucleoporation (LONZA) Cell Line Nucleofector Kit V (Cat#VCA-1003). Instead for U266, KMS-28BM and RPMI-8226 Cell Line Nucleofector Kit C (Cat#VCA-1004) was used. Specifically for primary cells 1×10^6 CD-138+ PCs were resuspended in […] of V solution and 100 nM miRNA precursors (Ambion) was used for the transfection reaction. For MM cell lines 5×10^6 cells were re-suspended in 100 μl of nucleofector solution V/C and 100 nM of miRNAs precursor or 100 nM LNA miRNA antisense oligonucleotides (Ambion) was used for each transfection point. Protein lysates and total RNA were collected at the time indicated. miRNA processing and expression were verified by northern blot and stem-loop qRT-PCR.
(§3) Cells were plated in 96-well plates in triplicate and incubated at 37° C. in a 5% CO2 incubator. Cell viability was examined with 3-(4,5-dimethylthiazol-2-yl)-2,5-dipheniltetrazolium bromide (MTT)-Cell Titer 96AQueous One Solution Cell Proliferation Assay (Promega), according to the manufacturer's protocol. Metabolically active cells were detected by adding 20 μl of MTT to each well. After 1 hr incubation, the plates were analyzed in a Multi label Counter (Bio-Rad Laboratories). Apoptosis was assessed using Annexin V-FITC apoptosis detection kits followed by flow cytometric analysis. For Annexin V staining, MM cells (pre-miRNAs pool or Scrambled transfected) were treated with MI-219 at different concentrations (0, 2.5, 5.0, 10 μM) for 24 hr and then treated as for DNA content analysis, except that fixation was omitted and the Cells (5×10^5 per sample) were resuspended in PBS containing 25 μg/ml Annexin-V-FLUOS (Roche Applied Science) and 50 μg/ml PI prior to FACS analysis. The percentage of apoptosis indicated was corrected for background levels found in the corresponding untreated controls. The percentage of apoptotic cells was expressed as the mean±SD of three experiments.

[4] = tested on: RPMI-8226 cells expressing mutant TP53; experiment: MTS cell viability assay after miRNA transfection; settings: transfected RPMI-8226 cells
Source text: as §1, §2, §3

Substance | MDM2 mRNA levels [1] | migration and tissue invasion [2] | growth arrest (MTS assay) [3] | growth arrest (MTS assay) [4]
miR-192: microRNA, p53-activated, down-regulated in MM; transfected as miRNA precursor (Ambion) or lentivector; SEQ ID NO:56 (CUGACCUAUGAAUUGACAGCC; listed as RNA, chemistry not given here; listed as Homo sapiens) | strongly reduced | significant decrease | significant growth arrest | did not detect this effect
miR-215: microRNA, p53-activated, down-regulated in MM; transfected as miRNA precursor (Ambion) or lentivector; SEQ ID NO:58 (AUGACCUAUGAAUUGACAGAC; listed as RNA, chemistry not given here; listed as Homo sapiens) | strongly reduced | significant decrease | significant growth arrest | did not detect this effect
